This is an account of results in publication PMC6123382, “Phosphorylation of the Amyloid-Beta Peptide Inhibits Zinc-Dependent Aggregation, Prevents Na,K-ATPase Inhibition, and Reduces Cerebral Plaque Deposition” (Frontiers in Molecular Neuroscience, 2018).

Data set [1] addresses Na^+/K^+-ATPase (α1β1 isozyme) (Anas platyrhynchos, UniProt Q6TG02+Q7ZYV1). As to the kind of experiment: Isothermal titration calorimetry of binding to Na+/K+-ATPase. Details: species or system duck (salt glands). Conditions: ITC, 25°C. How it is done:
The purified preparation of Na^+/K^+-ATPase (α1β1 isozyme) was obtained from duck salt glands as described elsewhere ([Petrushanko et al., 2016]).
The thermodynamic parameters of amyloid peptides binding to Na^+/K^+-ATPase were measured using a MicroCal iTC200 instrument, as described elsewhere ([Mitkevich et al., 2012]; [Petrushanko et al., 2014]). Experiments were carried out at 25°C in 10 mM imidazole buffer (pH 7.5), containing 130 mM NaCl, 30 mM KCl, 3 mM MgCl2. Aliquots (2.6 μl) of ligands were injected into a 0.2-ml cell containing protein solution to achieve a complete binding isotherm. Protein concentration in the cell ranged from 10 to 20 μM, and ligand concentration in the syringe ranged from 100 to 200 μM. The resulting titration curves were fitted using the MicroCal Origin software, assuming one set of binding sites. Affinity constants (Ka), enthalpy variations (ΔH) and stoichiometry of binding (N) were determined and the Gibbs energy (ΔG) and entropy variations (ΔS) were calculated from the equation: ΔG = −RTlnKa = ΔH-TΔS.
Background: Isothermal titration calorimetry measures the heat released or taken up as one component is titrated into another.

For data set [2] the following is noted: cited from earlier work. From the text: Recently, it has been shown that Aβ undergoes phosphorylation at Ser8 both in vitro and in vivo ([Kumar et al., 2011], [2013]). […] Recently, pS8-Aβ was obtained in vitro by Aβ phosphorylation with protein kinase A and was subsequently identified in vivo ([Kumar et al., 2011], [2013]). Based on the oligomeric state of pS8-Aβ derived from brain tissue of A ...

Data set [3] addresses Na+/K+-ATPase (α1β1 isozyme) from duck salt glands (duck). As to the kind of experiment: ITC; peptide (100-200 μM, syringe) injected into Na+/K+-ATPase (10-20 μM, cell); 25°C; 10 mM imidazole pH 7.5, 130 mM NaCl, 30 mM KCl, 3 mM MgCl2; fit with one set of binding sites.
[4] abbreviates: 10 mM imidazole buffer (pH 7.5), 130 mM NaCl, 30 mM KCl, 3 mM MgCl2.
Where [5] appears, read: pH 7.5, calculated from ΔG = −RTlnKa = ΔH-TΔS.

Where no end group is shown, it is not given here.

Broadly, the Kd is the equilibrium constant for the complex coming apart.

Take LVFFAEDVGSNKGAIIGLMVGGVVIA [Aβ17–42]: in data set [1] (setting [4]), the “detectability of binding to Na+,K+-ATPase” value is on record as “Binding was detectable” and the ΔH was -2.27 kcal/mol. In data set [1] (10 mM imidazole buffer (pH 7.5), 130 mM NaCl, 30 mM KCl, 3 mM MgCl2, one set of binding sites), the Ka was 260000 M⁻¹. Besides, in data set [1] (setting [5]), the TΔS was 5.13 kcal/mol and the ΔG is -7.4 kcal/mol.

Consider “pS8-Aβ40: Aβ40 phosphorylated at Ser8 (literature)”, for which the aggregation in vitro entry in data set [2] (absence of divalent cations, ref Kumar et al. (2011)) is “accelerated aggregation”.

On to “pS8-Aβ: phosphorylated Ser8-containing β-amyloid peptide (length not stated, literature)”, for which, in data set [2] (in vitro, absence of zinc ions, ref Rezaei-Ghaleh et al., 2016, Jamasbi et al., 2017), the “aggregation in absence of zinc ions” value is “fast-aggregating peptide species”.

In the case of “β-amyloid peptide 17–42 (Aβ17-42), C-terminal hydrophobic fragment”, in data set [3], the Ka turned out to be 260000 M⁻¹, the Kd is 3.8 µM and the dH is -2.27 kcal/mol.
